In US20240210412A1, “SULFONYL-TRIAZOLE COMPOUNDS USEFUL AS LIGANDS AND INHIBITORS OF PROSTAGLANDIN REDUCTASE 2” (University of Virginia Patent Foundation, priority 2021, published 2024):

Experiments:
Test in all cases: SILAC LC-MS ABPP
Settings in all cases: 25 μM 2 h, live DM93 cells
A6NKT7 = format: cell-based, human
Description: (§1) Cells were grown to 90-95% confluence before being washed once with warm, sterile DPBS (1×, 5 mL), followed by addition of 10 mL of serum-free media (supplemented with 1% L-glutamine) containing either DMSO or SuTEx fragment (in DMSO) was added. Light cells were treated with DMSO vehicle while the heavy cells were treated with DMSO or SuTEx fragment (in DMSO) and incubated for 2 hrs. After 2 hrs, the cells were treated with SuTEx alkyne probe (HHS475, 10 μL of 1000× DMSO stock) and incubated for an additional 2 hrs. The media was aspirated and cells washed with cold PBS (5 mL) and harvested. Cells were spun at 500×g for 5 min at 4° C. followed by removal of supernatant. Pellets were resuspended in 1 mL of cold DPBS and spun at 1,400×g for 3 min at 4° C. followed by removal of supernatant. The cells were lysed in PBS by sonication and fractionated (100,000×g, 45 min, 4° C.).The light and heavy soluble fractions were diluted to 2.3 mg/mL in PBS and 432 μL were used for analysis (1 mg total protein). The probe-modified proteomes were conjugated to desthiobiotin-PEG3-azide (10 μl of 10 mM stock in DMSO; 200 μM final concentration) using TCEP (10 μl of fresh 50 mM stock in water, 1 mM final concentration), TBTA ligand (33 μl of a 1.7 mM 4:1 t-butanol/DMSO stock, 100 μM final concentration) and CuSO4 (10 μl of 50 mM stock, 1 mM final concentration). Samples were vortexed to mix and incubated for 1 hr at room temperature. The heavy and light proteomes were mixed 1:1 and the subsequent steps, including LC-MS/MS data analysis, were performed as previously described^[8a].
(§2) Coupling cell-based screens with chemical proteomics can facilitate the identification of target protein and binding sites that engage and are irreversibly modified by covalent ligands^[12]. In these assays, covalent ligands block SuTEx activity-based probe (ABP) labeling at protein sites, and the competition of probe labeling can be used to quantify potency and selectivity across the proteome^[10a]. To facilitate quantitative chemical proteomics, DM93 melanoma cells were cultured using stable isotopic labeling by amino acids in cell culture (SILAC)^[13]. Cells cultured in “light” media were treated with dimethyl sulfoxide (DMSO) vehicle while cells cultured in “heavy” media were treated with SuTEx ligand (25 μM, 2 hours, 37° C.). Next, cells were treated with HHS-475 probe (100 μM, 2 hours, 37° C.) followed by lysis and processing of proteomes for analysis. Probe-modified proteins from the soluble fraction were conjugated to a desthiobiotin-azide tag by copper-catalyzed azide-alkyne cycloaddition (CuAAC)^[14] followed by mixing of the light and heavy proteomes. The combined proteomes were digested with trypsin protease to produce probe-modified peptides, followed by enrichment and purification by avidin affinity chromatography. Probe-modified peptides were resolved, identified, and quantified by high-resolution liquid chromatography-tandem mass spectrometry (LC-MS/MS). Resultant data were analyzed as previously described^[8a, 10a]. Table 2, below, lists sites of modification targeted by sulfonyl-triazole compounds HHS-0101, HHS-0201, HHS-0301, HHS-0401, and HHS-0701. The format of the table is as follows: protein Uniprot accession number (see uniprot.org); tyrosine site (amino acid position) modified; treatment (sulfonyl-triazole compound identification number, followed by Y (where if multiple compounds modify the same site, the compounds are separated by vertical lines).

Q5VTE0 = format: cell-based, human
Description: as §1, §2

O43172 = target: T1, O43172 (Homo sapiens, UniProt O43172); format: cell-based
T1 construct: endogenous in cells; host or cells: DM93
In short: (§3)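 Quantification uses SILAC ratios from LC-MS/MS of probe-modified tyrosine peptides. DM93 melanoma cells: heavy treated with 25 μM SuTEx ligand, light with DMSO (2 h, 37 °C), followed by HHS-475 probe at 100 μM for 2 h.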

P28482 = target: T2, P28482 (Homo sapiens, UniProt P28482); format: cell-based
T2 construct: endogenous in cells; host or cells: DM93 (SILAC)
In short: as §3

Q15020 = target: T3, Q15020 (Homo sapiens, UniProt Q15020); format: cell-based
T3 construct: performing SuTEx compound screening directly in cells; endogenous in cells; host or cells: DM93 cells (SILAC), soluble fraction
In short: as §3

Q9Y2S7 = target: T4, Q9Y2S7 (Homo sapiens, UniProt Q9Y2S7); format: cell-based
T4 construct: endogenous in cells; host or cells: DM93 cells (SILAC)
In short: as §3

Q9HCH5 = target: T5, Q9HCH5 (Homo sapiens, UniProt Q9HCH5); format: cell-based
T5 construct: endogenous in cells; host or cells: DM93 cells (SILAC), treated live; soluble proteome analysed
In short: as §3

Q8NFI4 = format: cell-based, human
Description: as §1, §2

O60763 = target: T6, O60763 (Homo sapiens, UniProt O60763); format: cell-based
T6 construct: endogenous in cells; host or cells: DM93
In short: as §3

P18206 = target: T7, P18206 (Homo sapiens, UniProt P18206); format: cell-based
T7 construct: Probe-modified proteins from the soluble fraction were conjugated to a desthiobiotin-azide tag; endogenous in cells; host or cells: DM93 (SILAC)
In short: as §3

Q9Y5K3 = format: cell-based, human
Description: as §1, §2

Q9P2E9 = target: T8, Q9P2E9 (Homo sapiens, UniProt Q9P2E9); format: cell-based
T8 construct: endogenous in cells; host or cells: DM93 cells (SILAC)
In short: as §3

Q13330 = target: T9, Q13330 (Homo sapiens, UniProt Q13330); format: cell-based
T9 construct: performing SuTEx compound screening directly in cells; endogenous in cells; host or cells: DM93 cells (SILAC), soluble fraction
In short: as §3

P15880 = target: T10, P15880 (Homo sapiens, UniProt P15880); format: cell-based
T10 construct: endogenous in cells; host or cells: DM93 cells (SILAC)
In short: as §3

P49585 = target: T11, P49585 (Homo sapiens, UniProt P49585); format: cell-based
T11 construct: endogenous in cells; host or cells: DM93 cells (SILAC)
In short: as §3

Q8N0Y7 = format: cell-based, human
Description: as §1, §2

O15523 = format: cell-based, human
Description: as §1, §2

P26358 = target: T12, P26358 (Homo sapiens, UniProt P26358); format: cell-based
T12 construct: endogenous in cells; host or cells: DM93 (SILAC)
In short: as §3

O75131 = target: T13, O75131 (Homo sapiens, UniProt O75131); format: cell-based
T13 construct: endogenous in cells; host or cells: DM93
In short: as §3

P35269 = target: T14, P35269 (Homo sapiens, UniProt P35269); format: cell-based
T14 construct: Probe-modified proteins from the soluble fraction were conjugated to a desthiobiotin-azide tag; endogenous in cells; host or cells: DM93 (SILAC)
In short: as §3

T1 sequence (O43172 whole entry): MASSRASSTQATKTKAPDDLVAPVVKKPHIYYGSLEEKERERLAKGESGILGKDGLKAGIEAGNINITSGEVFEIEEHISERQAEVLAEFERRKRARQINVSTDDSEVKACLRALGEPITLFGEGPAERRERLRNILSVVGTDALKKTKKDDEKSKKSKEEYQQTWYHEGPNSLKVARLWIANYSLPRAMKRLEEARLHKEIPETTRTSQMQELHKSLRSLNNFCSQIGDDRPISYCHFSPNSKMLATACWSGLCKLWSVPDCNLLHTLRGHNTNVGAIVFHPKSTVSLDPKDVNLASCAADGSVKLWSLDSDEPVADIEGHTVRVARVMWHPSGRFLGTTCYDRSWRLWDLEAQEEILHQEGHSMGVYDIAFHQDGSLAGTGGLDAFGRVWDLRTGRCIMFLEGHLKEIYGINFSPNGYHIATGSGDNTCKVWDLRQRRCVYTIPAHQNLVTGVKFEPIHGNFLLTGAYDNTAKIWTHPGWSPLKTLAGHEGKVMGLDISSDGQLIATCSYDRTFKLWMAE
T5 sequence (Q9HCH5 whole entry): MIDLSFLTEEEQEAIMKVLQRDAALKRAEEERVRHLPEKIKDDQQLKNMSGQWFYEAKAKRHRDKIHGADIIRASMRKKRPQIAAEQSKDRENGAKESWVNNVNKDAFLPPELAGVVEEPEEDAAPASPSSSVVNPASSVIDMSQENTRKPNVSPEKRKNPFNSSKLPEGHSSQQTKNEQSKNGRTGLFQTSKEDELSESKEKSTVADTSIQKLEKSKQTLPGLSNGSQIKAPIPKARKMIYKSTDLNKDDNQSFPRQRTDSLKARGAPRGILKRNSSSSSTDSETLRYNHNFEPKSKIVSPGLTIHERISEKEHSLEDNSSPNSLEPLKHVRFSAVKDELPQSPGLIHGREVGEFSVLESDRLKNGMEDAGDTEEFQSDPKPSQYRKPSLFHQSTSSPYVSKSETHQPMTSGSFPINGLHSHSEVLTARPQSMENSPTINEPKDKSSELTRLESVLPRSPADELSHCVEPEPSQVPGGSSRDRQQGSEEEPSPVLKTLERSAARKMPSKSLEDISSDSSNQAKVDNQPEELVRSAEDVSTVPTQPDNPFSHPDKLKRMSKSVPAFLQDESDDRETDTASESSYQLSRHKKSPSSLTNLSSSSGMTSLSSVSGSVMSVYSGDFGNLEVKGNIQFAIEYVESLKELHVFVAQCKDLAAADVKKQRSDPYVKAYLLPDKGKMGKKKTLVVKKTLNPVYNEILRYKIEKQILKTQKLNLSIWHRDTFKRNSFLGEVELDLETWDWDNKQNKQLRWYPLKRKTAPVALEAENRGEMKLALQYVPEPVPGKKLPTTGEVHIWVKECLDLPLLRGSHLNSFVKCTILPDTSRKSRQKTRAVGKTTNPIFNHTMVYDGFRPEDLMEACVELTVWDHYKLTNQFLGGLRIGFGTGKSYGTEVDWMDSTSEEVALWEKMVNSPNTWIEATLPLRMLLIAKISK
T3 sequence (Q15020 whole entry): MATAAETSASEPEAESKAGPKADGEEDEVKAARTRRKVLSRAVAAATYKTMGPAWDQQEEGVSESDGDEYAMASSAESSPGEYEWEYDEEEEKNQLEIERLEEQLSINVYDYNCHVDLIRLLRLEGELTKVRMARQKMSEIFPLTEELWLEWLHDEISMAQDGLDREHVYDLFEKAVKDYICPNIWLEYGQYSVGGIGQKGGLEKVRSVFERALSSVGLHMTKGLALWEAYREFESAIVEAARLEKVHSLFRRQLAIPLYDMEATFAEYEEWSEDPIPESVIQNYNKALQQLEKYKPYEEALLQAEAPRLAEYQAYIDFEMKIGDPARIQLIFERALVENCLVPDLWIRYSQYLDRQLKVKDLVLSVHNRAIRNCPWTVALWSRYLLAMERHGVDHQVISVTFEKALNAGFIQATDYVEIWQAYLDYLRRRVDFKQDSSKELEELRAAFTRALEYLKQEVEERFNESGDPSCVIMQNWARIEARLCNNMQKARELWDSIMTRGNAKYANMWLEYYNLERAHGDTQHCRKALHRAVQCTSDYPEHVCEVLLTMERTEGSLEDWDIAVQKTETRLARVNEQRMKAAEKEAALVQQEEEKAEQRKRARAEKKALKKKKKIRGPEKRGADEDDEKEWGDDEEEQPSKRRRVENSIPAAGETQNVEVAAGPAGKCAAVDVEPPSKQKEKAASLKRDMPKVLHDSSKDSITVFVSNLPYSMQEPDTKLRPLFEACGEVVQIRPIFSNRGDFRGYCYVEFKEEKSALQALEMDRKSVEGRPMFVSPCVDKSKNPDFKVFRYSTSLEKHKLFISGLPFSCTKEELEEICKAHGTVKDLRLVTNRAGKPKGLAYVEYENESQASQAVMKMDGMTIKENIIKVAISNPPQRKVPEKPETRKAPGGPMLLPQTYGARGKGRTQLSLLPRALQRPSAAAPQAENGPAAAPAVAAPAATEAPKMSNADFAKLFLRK
T4 sequence (Q9Y2S7 52-368): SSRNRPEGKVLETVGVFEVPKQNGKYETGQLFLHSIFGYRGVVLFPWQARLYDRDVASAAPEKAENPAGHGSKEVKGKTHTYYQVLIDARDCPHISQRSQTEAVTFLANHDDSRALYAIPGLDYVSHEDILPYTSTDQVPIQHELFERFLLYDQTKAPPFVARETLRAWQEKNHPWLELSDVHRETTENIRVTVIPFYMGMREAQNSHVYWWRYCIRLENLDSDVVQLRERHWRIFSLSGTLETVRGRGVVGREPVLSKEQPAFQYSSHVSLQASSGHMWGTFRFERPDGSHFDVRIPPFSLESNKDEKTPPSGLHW
T7 sequence (P18206 1-1066 isoform P18206-2): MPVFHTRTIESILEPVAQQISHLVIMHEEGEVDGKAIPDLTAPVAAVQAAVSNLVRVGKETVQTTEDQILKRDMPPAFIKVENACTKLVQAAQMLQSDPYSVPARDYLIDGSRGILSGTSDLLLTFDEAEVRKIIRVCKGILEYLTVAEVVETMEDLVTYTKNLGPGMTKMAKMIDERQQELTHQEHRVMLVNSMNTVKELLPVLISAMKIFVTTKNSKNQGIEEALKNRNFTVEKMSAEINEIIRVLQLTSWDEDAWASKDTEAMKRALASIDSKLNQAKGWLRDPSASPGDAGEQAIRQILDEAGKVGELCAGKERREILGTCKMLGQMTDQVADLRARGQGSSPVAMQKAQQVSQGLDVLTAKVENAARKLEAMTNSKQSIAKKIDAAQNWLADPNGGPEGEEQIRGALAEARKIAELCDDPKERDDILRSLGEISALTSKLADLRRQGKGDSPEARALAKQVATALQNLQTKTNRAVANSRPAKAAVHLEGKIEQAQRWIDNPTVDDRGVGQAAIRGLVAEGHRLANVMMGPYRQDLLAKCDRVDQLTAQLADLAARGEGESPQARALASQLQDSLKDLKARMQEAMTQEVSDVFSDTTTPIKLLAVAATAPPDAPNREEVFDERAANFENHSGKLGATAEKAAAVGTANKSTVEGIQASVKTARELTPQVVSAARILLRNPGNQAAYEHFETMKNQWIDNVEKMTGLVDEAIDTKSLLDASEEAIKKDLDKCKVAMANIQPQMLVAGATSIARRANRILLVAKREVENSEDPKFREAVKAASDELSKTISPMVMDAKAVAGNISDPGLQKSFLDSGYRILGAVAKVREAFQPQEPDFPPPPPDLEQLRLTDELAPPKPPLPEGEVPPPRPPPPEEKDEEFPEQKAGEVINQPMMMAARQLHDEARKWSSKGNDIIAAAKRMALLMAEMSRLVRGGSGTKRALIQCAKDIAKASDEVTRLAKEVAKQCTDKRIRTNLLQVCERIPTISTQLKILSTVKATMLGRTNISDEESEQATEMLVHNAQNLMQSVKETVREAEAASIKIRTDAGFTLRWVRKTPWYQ
T2 sequence (P28482 whole entry): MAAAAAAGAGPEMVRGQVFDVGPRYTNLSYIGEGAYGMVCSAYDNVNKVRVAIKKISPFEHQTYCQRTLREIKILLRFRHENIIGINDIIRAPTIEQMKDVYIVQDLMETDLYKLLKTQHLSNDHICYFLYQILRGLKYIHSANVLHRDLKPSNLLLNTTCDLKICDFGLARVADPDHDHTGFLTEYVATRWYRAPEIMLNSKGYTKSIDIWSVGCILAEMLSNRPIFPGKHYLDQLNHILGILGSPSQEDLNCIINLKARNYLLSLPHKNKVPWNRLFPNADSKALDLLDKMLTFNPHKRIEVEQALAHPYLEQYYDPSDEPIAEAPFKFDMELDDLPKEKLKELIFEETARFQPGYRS
T11 sequence (P49585 whole entry): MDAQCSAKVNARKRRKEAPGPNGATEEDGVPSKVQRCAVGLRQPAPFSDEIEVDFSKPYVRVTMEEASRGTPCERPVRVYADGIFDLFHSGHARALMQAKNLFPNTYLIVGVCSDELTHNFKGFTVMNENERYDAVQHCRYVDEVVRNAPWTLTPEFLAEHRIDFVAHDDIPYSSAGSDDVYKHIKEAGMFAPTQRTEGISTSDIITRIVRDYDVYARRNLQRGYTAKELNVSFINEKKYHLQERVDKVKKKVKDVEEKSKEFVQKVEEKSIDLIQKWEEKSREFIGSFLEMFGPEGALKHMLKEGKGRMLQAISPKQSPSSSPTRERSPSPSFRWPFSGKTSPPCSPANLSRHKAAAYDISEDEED
T14 sequence (P35269 whole entry): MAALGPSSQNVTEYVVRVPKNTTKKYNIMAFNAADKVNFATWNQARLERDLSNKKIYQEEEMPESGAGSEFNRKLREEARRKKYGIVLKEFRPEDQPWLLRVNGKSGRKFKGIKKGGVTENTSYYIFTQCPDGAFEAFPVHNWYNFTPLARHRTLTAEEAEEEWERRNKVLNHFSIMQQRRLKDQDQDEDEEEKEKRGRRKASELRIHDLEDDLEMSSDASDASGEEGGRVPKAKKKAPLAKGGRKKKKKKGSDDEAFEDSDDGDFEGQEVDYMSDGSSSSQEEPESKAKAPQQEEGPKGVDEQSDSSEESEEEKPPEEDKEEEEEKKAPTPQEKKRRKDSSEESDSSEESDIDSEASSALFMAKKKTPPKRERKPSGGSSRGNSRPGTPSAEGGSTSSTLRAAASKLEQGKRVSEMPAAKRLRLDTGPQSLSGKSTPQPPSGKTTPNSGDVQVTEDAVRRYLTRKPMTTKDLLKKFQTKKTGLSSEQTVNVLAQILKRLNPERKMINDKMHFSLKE

O=C(NC1CC1)c1ccc(S(=O)(=O)n2cncn2)cc1 [HHS-0101, 4-((1H-1,2,4-triazol-1-yl)sulfonyl)-N-cyclopropylbenzamide]
liganded tyrosine site 1008 (A6NKT7): HHS0101.Y (tyrosine sites that showed >80% reductions (SR >5) in probe labeling in cells treated with compounds (liganded sites)) | liganded tyrosine site 183 (Q5VTE0): HHS0101.Y (tyrosine sites that showed >80% reductions (SR >5) in probe labeling in cells treated with compounds (liganded sites)) | liganded tyrosine site 31 (O43172): HHS0101.Y|HHS0301.Y (tyrosine sites that showed >80% reductions (SR >5) in probe labeling in cells treated with compounds (liganded sites)) | liganded tyrosine site 32 (O43172): HHS0101.Y|HHS0301.Y (tyrosine sites that showed >80% reductions (SR >5) in probe labeling in cells treated with compounds (liganded sites)) | liganded tyrosine site 113 (P28482): HHS0101.Y (tyrosine sites that showed >80% reductions (SR >5) in probe labeling in cells treated with compounds (liganded sites)) | liganded tyrosine site 541 (Q15020): HHS0101.Y|HHS0201.Y|HHS0301.Y|HHS0401.Y|HHS0701.Y (tyrosine sites that showed >80% reductions (SR >5) in probe labeling in cells treated with compounds (liganded sites)) | liganded tyrosine site 168 (Q9Y2S7): HHS0101.Y (tyrosine sites that showed >80% reductions (SR >5) in probe labeling in cells treated with compounds (liganded sites)) | liganded tyrosine site 289 (Q9HCH5): HHS0101.Y|HHS0201.Y|HHS0301.Y|HHS0401.Y|HHS0701.Y (tyrosine sites that showed >80% reductions (SR >5) in probe labeling in cells treated with compounds (liganded sites))

O=C(NCC1CC1)c1ccc(S(=O)(=O)n2cncn2)cc1 [HHS-0201, 4-((1H-1,2,4-triazol-1-yl)sulfonyl)-N-(cyclopropylmethyl)benzamide]
liganded tyrosine site 213 (Q8NFI4): HHS0201.Y (tyrosine sites that showed >80% reductions (SR >5) in probe labeling in cells treated with compounds (liganded sites)) | liganded tyrosine site 718 (O60763): HHS0201.Y (tyrosine sites that showed >80% reductions (SR >5) in probe labeling in cells treated with compounds (liganded sites)) | liganded tyrosine site 100 (P18206): HHS0201.Y|HHS0301.Y (tyrosine sites that showed >80% reductions (SR >5) in probe labeling in cells treated with compounds (liganded sites))

O=C(NC1CCCCC1)c1ccc(S(=O)(=O)n2cncn2)cc1 [HHS-0301, 4-((1H-1,2,4-triazol-1-yl)sulfonyl)-N-cyclohexylbenzamide]
liganded tyrosine site 173 (Q9Y5K3): HHS0301.Y (tyrosine sites that showed >80% reductions (SR >5) in probe labeling in cells treated with compounds (liganded sites)) | liganded tyrosine site 647 (Q9P2E9): HHS0301.Y (tyrosine sites that showed >80% reductions (SR >5) in probe labeling in cells treated with compounds (liganded sites)) | liganded tyrosine site 22 (Q13330): HHS0301.Y (tyrosine sites that showed >80% reductions (SR >5) in probe labeling in cells treated with compounds (liganded sites)) | liganded tyrosine site 250 (P15880): HHS0301.Y (tyrosine sites that showed >80% reductions (SR >5) in probe labeling in cells treated with compounds (liganded sites)) | liganded tyrosine site 173 (P49585): HHS0301.Y (tyrosine sites that showed >80% reductions (SR >5) in probe labeling in cells treated with compounds (liganded sites))

O=C(NCc1ccccc1)c1ccc(S(=O)(=O)n2cncn2)cc1 [HHS-0401, 4-((1H-1,2,4-triazol-1-yl)sulfonyl)-N-benzylbenzamide]
liganded tyrosine site 119 (Q8N0Y7): HHS0401.Y (tyrosine sites that showed >80% reductions (SR >5) in probe labeling in cells treated with compounds (liganded sites)) | liganded tyrosine site 264 (O15523): HHS0401.Y (tyrosine sites that showed >80% reductions (SR >5) in probe labeling in cells treated with compounds (liganded sites)) | liganded tyrosine site 367 (P26358): HHS0401.Y (tyrosine sites that showed >80% reductions (SR >5) in probe labeling in cells treated with compounds (liganded sites)) | liganded tyrosine site 203 (O75131): HHS0401.Y (tyrosine sites that showed >80% reductions (SR >5) in probe labeling in cells treated with compounds (liganded sites))

O=C(c1ccc(S(=O)(=O)n2cncn2)cc1)N1CCC(c2ccccc2)CC1 [HHS-0701, (4-((1H-1,2,4-triazol-1-yl)sulfonyl)phenyl)(4-phenylpiperidin-1-yl)methanone]
liganded tyrosine site 124 (P35269): HHS0701.Y (tyrosine sites that showed >80% reductions (SR >5) in probe labeling in cells treated with compounds (liganded sites))
